Reference: patent US20250360123A1, “METHODS AND COMPOSITIONS FOR TREATING INHERITED RETINAL DEGENERATION” (ONL Therapeutics, Inc., priority 2024, published 2025)

Legend:
Type in all cases: in vivo, mouse
Fas-Lpr/P23H mice [1] = assay: Retinal histology and IHC staining (DAPI, m-opsin, rhodopsin); conditions: HCQ versus untreated
Method: (§1) This study was conducted in the Lpr/P23H mouse line, a Fas-deficient mouse line that is also a model of retinitis pigmentosa. Hydroxychloroquine (HCQ) was given in the drinking water at 1.2 mg/ml starting at 21 days post-natal (P21) to reduce autophagy flux (FIG. 1). Photoreceptor death was assessed by Terminal deoxynucleotidyl transferase (TdT) dUTP Nick-End Labeling (TUNEL) cell counts. Retinal structure was examined by histology and optical coherence tomography (OCT) analysis. Electroretinogram (ERG) recording and immunohistochemistry (IHC) staining of rhodopsin and m-opsin were performed to evaluate the retinal function. Transcript levels of inflammatory cytokines, CCL-2 and CCL-3, were analyzed by rt-PCR.

Fas-Lpr/P23H mice [2] = assay: Electroretinogram (ERG) recording, Fas-deficient retinitis pigmentosa model; conditions: 3-month and 4-month old Fas-LPR/P23H mice; HCQ versus untreated
Method: as §1
Photoreceptor function was assessed using electroretinograms (ERGs).

Fas-Lpr/P23H mice [3] = assay: TUNEL cell counts for photoreceptor death in retina; conditions: HCQ 1.2 mg/ml in drinking water from P21, versus untreated mice, FIG. 2B
Method: as §1

CCL-3 = assay: Transcript level of inflammatory cytokine CCL-3 in retina by rt-PCR; conditions: Fas-Lpr/P23H mice, HCQ 1.2 mg/ml in drinking water from P21, versus untreated mice
Method: as §1

CCL-2 = assay: Transcript level of inflammatory cytokine CCL-2 in retina by rt-PCR; conditions: Fas-Lpr/P23H mice, HCQ 1.2 mg/ml in drinking water from P21, versus untreated mice
Method: as §1

Fas-Lpr/P23H mice [4] = assay: ONL thickness by optical coherence tomography (OCT), Fas-deficient retinitis pigmentosa model; conditions: 3- and 4-months old, OCT at 250 and 500 μm from the optic nerve, inferior and superior retina, HCQ in drinking water versus untreated
Method: as §1
A proxy for retinal cell death is […] (ONL) thickness, with thicker ONLs correlating to less cell death.

## CCN(CCO)CCCC(C)Nc1ccnc2cc(Cl)ccc12 (centres unmarked) [HCQ, Hydroxychloroquine]
Fas-Lpr/P23H mice [1]; 3-month and 4-month old Fas-LPR/P23H mice, FIG. 6
  photoreceptor survival (histological images): greater photoreceptor survival
Fas-Lpr/P23H mice [1]; 3-month and 4-month old Fas-Lpr/P23H mice, FIG. 7A, 7B
  survival of cell bodies (DAPI), cones (m-opsin) and rods (rhodopsin), IHC images: greater survival of cell bodies, cones, and rods
Fas-Lpr/P23H mice [2]
  scotopic ERG a-wave amplitude: significantly greater amplitude
  scotopic ERG b-wave amplitude: significantly greater amplitude
Fas-Lpr/P23H mice [3]
  TUNEL-positive cell counts in the retina: statistically significantly fewer
CCL-3
  production of inflammatory cytokine CCL-3: lowered production
CCL-2
  production of inflammatory cytokine CCL-2: lowered production
Fas-Lpr/P23H mice [4]
  optic nerve layer (ONL) thickness: significantly greater ONL thickness
